Experimental data reported in EP3650046A1, “MESENCHYMAL STEM CELL BASED TARGETED ACTIVE INGREDIENT DELIVERY SYSTEM” (Cellis AG, priority 2018, dated 2020).

What was measured:
[1] = tested on: human cancer cell lines HeLa, SCOV3 or MDA-MB-231; experiment: Delivery of the complex from loaded MSCs to cancer cells in co-culture, flow cytometry; assay type: cell-based; conditions: loaded MSCs co-cultured for 24 hours with cancer cells in ratio 2:1, example of results
Experimental: Cancer cell lines HeLa, SKOV3 and MDA-MB-231 were cultures in RPMI, 10%FBS, 1:100 penicillin/streptomycin, 1:100 L-glutamine. Media was changed every 2 days.
For co-culture with MSCs, cancer cells were detached from culture dish using 0,25% Trypsin-EDTA and resuspended in full RPMI media. UC-MSC cells were prepared as described in Example 1 and then mixed 2:1 (200 000:100 000) with cancer cell line and plated on 24-well plate. Co-culture media was a mixture 1:1 of media for MSC and cancer cells.
The results were analysed by flow cytometry. Before setting up the co-culture in every experiment cancer cells were stained with Cell Trace Violet (Thermo Fisher Scientific) in the 1:100 dilution. In experiments with fluorescent cargo (haemoglon-Alexa488 and ferritin-A488) UC-MSC and cancer cells were differentiated by Cell Trace Violet signal. In experiments with ferritin-doxorubicin all cells in co-culture were additionally stained with Draq7 (BioLegend) in order to track viability. Cells were differentiated by Cell Trace Violet.

[2] = tested on: Human umbilical Mesenchymal Stem Cells (MSC); experiment: Loading of UC-MSC in suspension with fluorescently labelled iron-binding protein complexes, flow cytometry; assay type: cell-based; conditions: MSC at passage five loaded with 0.6 mg/ml
Experimental: Umbilical Cord Mesenchymal Stem cells (UC-MSC) were cultured in DMEM 1000, 1:100 penicillin/streptomycin, 20% FBS, 8 ng/ml bFGF. Media was changed every 2 days. Experiments were carried out on UC-MSCs at passage 5.
Ferritin and haemoglobin complexes were produced as described in WO 2016/207257 (see in particular Examples 5 and 6).
Human UC-MSCs were loaded in suspension with fluorescently labelled haemoglobin-Alexa488, ferritn-Alexa488 or ferritin loaded with anticancer drug doxorubicin (ferritin-doxorubicin) as follows: UC-MSCs were detached from culture dish with 0,25% Trypsin-EDTA then cells were mixed with 0,6 mg/ml of haemoglobin-Alexa488, ferritn-Alexa488 and ferritn-doxorubicin in PBS to final cell density 10^6 per ml. Next cells were incubated for 1 hour at 37 °C, 5% CO2 and washed once in PBS afterwards. Cells were immediately used to set up co-culture with cancer cells.

Q: “Haemoglobin-Alexa488: fluorescently labelled haemoglobin-Alexa488, produced as described in WO 2016/207257” was tested. Which “cancer cells positive for Haemoglobin-Alexa488” value ([1]; Fig. 2C) did it give?
A: Approximately 96%

Q: What about the “cancer cells positive for Haemoglobin-Alexa488” value ([1]; Fig. 3C (Ft- / Ft+ panels)) of the same substance?
A: Approximately 92%

Q: What about the “efficacy of loading of MSC” value [2] of the same substance?
A: ≥ 97%

Q: What about the “mean fluorescence intensity in loaded MSC cells versus control group” value ([2]; fold higher than control group) of the same substance?
A: 4 times
